Results as given in patent US6413499B1, “Methods and kits for maxillary dental anesthesia by means of a nasal deliverable anesthetic” (priority 2000, dated 2002).
Structures can show the parent of a compound that is named as a salt.

System: maxillary dental arch
Test: nasal deliverable anesthetizing composition applied to a patient's nasal cavity
Type: in vivo
Settings: for absorption of the anesthetic with vasoconstrictor: compared to an anesthetic composition applied to nasal tissue not treated with a vasoconstrictor, HCl
From the text: As set forth above, the inventive nasal deliverable anesthetic compositions are delivered to the patient through the nasal cavity. This is done by applying the anesthetic composition to the lateral wall or membrane of the nasal cavity, where it can be absorbed into the nasal tissue, including nerves located within the nasal tissue. In the case where a delivery device having an extension tube is used, good results have been obtained by inserting approximately 15 mm of the tube into the patient's nasal cavity through the nostril. A nasal speculum may advantageously be used to assist in dilating the patient's nostril preparatory to inserting the extension tube so as to facilitate placement of the tube in a desired location within the patient's nasal cavity.
As discussed above with respect to FIG. 1, the nasal cavity includes a number of nerves that are responsible for transmitting pain and pressure impulses from the maxillary arch and palate to the brain. Most of these nerves collect at and below the maxillary nerve. Due to the location of the various nerves that collect at or below the maxillary nerve it may be possible to provide various degrees of anesthesia. Control of dosage volume, through control of the number of substance dispensing, can be utilized to determine the anatomical structures to be anesthetized. Minimal dosage volumes tend to yield anesthesia to at least a portion of the maxillary dentition, while greater anesthetic dosages yield anesthesia to the entire maxillary arch.
The tetracaine portion included an associated chlorobutanol preservative. The aqueous solution included sodium chloride in water.

Cc1cc(C(C)(C)C)c(O)c(C)c1CC1=NCCN1 [Oxymetazoline HCl]
anesthetic effect of the anesthetic with vasoconstrictor (compared to a lidocaine composition applied to nasal tissue not treated with a vasoconstrictor): enhanced the anesthetic effect of the lidocaine | absorption of the anesthetic with vasoconstrictor: enhanced the absorption of the tetracaine | absorption of the anesthetic with vasoconstrictor (listed as oxymetazoline HCl): enhanced the absorption of the benzocaine
